One assay concerns the target DGKα (Homo sapiens (Human), UniProt P23743). Kind of assay: In vitro DGKα inhibition assay (ADP-Glo). Particulars: His-tagged human recombinant enzyme, 0.1 nM DGKα, 50 μM ATP, 20 μM DLG, 90 minute incubation. It counts as biochemical. The gist of the method: (§1)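 His-tagged human DGKα (0.1 nM, 50 μM ATP) or DGKζ (0.4 nM, 30 μM ATP), each with 20 μM DLG, in Tris pH 7.5 buffer with CHAPS, Mg2+, Ca2+.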
On the technique in general: ADP-Glo turns the ADP formed in a reaction into a luminescent signal.

The next assay addresses DGKζ (Homo sapiens (Human), UniProt Q13574). Kind of assay: In vitro DGKζ inhibition assay (ADP-Glo). It counts as biochemical. Particulars: His-tagged human recombinant enzyme, 0.4 nM DGK, 30 μM ATP, 20 μM DLG, 90 minute incubation. The gist of the method: as §1

Sequence of DGKζ (Q13574 whole entry): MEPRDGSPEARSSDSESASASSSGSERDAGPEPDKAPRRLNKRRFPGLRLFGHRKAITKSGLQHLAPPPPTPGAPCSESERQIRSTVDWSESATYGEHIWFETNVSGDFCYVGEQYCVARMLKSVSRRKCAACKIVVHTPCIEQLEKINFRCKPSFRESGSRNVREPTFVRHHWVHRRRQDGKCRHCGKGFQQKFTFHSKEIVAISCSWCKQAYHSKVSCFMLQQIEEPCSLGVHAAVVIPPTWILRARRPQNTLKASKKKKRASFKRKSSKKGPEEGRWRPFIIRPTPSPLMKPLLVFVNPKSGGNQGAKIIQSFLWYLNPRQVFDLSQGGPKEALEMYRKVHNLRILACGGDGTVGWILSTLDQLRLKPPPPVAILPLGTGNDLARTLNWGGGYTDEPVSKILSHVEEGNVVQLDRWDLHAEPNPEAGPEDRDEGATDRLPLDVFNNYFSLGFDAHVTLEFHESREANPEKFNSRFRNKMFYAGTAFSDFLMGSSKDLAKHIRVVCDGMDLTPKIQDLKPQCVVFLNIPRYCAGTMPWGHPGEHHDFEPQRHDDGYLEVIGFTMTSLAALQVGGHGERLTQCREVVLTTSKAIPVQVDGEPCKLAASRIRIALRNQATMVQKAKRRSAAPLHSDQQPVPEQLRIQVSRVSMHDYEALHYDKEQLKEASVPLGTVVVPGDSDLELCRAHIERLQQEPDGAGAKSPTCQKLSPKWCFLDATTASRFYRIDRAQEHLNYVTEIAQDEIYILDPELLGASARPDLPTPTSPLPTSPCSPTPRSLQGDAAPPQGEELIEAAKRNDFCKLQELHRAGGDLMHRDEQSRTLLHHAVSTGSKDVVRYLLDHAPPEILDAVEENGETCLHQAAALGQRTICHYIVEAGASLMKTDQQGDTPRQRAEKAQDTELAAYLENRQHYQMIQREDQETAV
Sequence of DGKα (P23743 whole entry): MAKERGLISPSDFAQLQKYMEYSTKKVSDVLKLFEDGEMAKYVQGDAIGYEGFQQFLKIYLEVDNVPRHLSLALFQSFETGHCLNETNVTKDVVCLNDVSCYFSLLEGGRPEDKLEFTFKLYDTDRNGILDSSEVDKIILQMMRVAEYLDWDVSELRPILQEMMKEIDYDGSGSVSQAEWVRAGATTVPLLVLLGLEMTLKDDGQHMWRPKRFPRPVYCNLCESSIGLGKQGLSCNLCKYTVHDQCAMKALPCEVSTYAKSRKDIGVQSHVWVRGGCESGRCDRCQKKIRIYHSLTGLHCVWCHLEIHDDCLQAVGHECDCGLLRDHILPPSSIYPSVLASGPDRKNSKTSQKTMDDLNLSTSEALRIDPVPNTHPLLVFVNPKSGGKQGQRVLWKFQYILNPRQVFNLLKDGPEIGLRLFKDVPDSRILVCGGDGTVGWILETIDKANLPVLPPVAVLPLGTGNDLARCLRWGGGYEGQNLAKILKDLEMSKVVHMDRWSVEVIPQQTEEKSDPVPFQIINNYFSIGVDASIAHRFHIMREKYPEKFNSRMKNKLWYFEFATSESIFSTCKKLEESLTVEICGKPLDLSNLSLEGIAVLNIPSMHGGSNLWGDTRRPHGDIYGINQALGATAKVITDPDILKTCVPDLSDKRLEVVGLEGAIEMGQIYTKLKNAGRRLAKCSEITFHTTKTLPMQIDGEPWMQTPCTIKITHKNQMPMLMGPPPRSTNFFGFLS

As usually defined, the IC50 is the point on the concentration scale where inhibition reaches its midpoint. For `CC(C)[C@H](c1ccc(Cl)cc1)N1C[C@H](C)N(c2nc3nncn3c3c2ncn3CCN(C)C)C[C@H]1C` [Example 91, 2-(4-((2S,5R)-4-((R)-1-(4-chlorophenyl)-2-methylpropyl)-2,5-dimethylpiperazin-1-yl)-1H-[1,2,4]triazolo[3,4-b]purin-1-yl)-N,N-dimethylethan-1-amine], the half-maximal inhibitory concentration (IC50) on DGKα was no more than 20 nM; at DGKζ, 20 to 200 nM.
The matching figures for `C[C@@H]1CN(c2nc3nncn3c3c2ncn3CCN(C)C)[C@@H](C)CN1C(c1ccc(F)cc1)c1ccc(F)cc1` [Example 28, 2-(4-((2S,5R)-4-(Bis(4-fluorophenyl)methyl)-2,5-dimethylpiperazin-1-yl)-1H-[1,2,4]triazolo[3,4-b]purin-1-yl)-N,N-dimethylethan-1-amine]: no more than 20 nM and no more than 20 nM.
For the molecule `Cc1nc2c(N3C[C@@H]([C@H](C)O)N(C(c4ccc(F)cc4)c4ccc(F)cc4)C[C@@H]3C)nc3nncn3c2n1C[C@@H]1CCCO1` [Example 124, (S)-1-((2S,5S)-1-(bis(4-fluorophenyl)methyl)-5-methyl-4-(2-methyl-1-(((S)-tetrahydrofuran-2-yl)methyl)-1H-[1,2,4]triazolo[3,4-b]purin-4-yl)piperazin-2-yl)ethan-1-ol], the IC50 at DGKα and on DGKζ was no more than 20 nM in each case.
Consider `Cc1nc2c(N3C[C@@H](C)N([C@@H](c4cccc(F)c4)C(C)C)C[C@@H]3C)nc3nncn3c2n1C[C@@H]1CCCO1` [Example 95, 4-((2S,5R)-4-((R)-1-(3-fluorophenyl)-2-methylpropyl)-2,5-dimethylpiperazin-1-yl)-2-methyl-1-(((S)-tetrahydrofuran-2-yl)methyl)-1H-[1,2,4]triazolo[3,4-b]purine], for which the half-inhibitory concentration (IC50) at DGKα and on DGKζ was no more than 20 nM in each case.
`C[C@@H]1CN(c2nc3nncn3c3c2nnn3C[C@H]2CCCO2)[C@@H](C)CN1C(c1ccc(F)cc1)c1ccc(F)cc1` [Example 29, 4-((2S,5R)-4-(Bis(4-fluorophenyl)methyl)-2,5-dimethylpiperazin-1-yl)-1-(((R)-tetrahydrofuran-2-yl)methyl)-1H-[1,2,3]triazolo[4,5-e][1,2,4]triazolo[4,3-a]pyrimidine]: the IC50 at DGKα and at DGKζ was no more than 20 nM each time.
With `C[C@@H]1CN(c2nc3nncn3c3c2ncn3CCN(C)C)[C@@H](C)CN1C(c1ccc(Br)cc1)c1ccc(Br)cc1` [Example 109, 2-(4-((2S,5R)-4-(Bis(4-bromophenyl)methyl)-2,5-dimethylpiperazin-1-yl)-1H-[1,2,4]triazolo[3,4-b]purin-1-yl)-N,N-dimethylethan-1-amine], the IC50 at DGKα and on DGKζ was no more than 20 nM each time.
With `Cc1nc2c(N3C[C@@H](C)N([C@@H](c4ccc(C(F)(F)F)cc4F)C(C)C)C[C@@H]3C)nc3nncn3c2n1C[C@@H]1CCCO1` [Example 72, 4-((2S,5R)-4-((R)-1-(2-fluoro-4-(trifluoromethyl)phenyl)-2-methylpropyl)-2,5-dimethylpiperazin-1-yl)-2-methyl-1-(((S)-tetrahydrofuran-2-yl)methyl)-1H-[1,2,4]triazolo[3,4-b]purine], the IC50 at DGKα and on DGKζ was no more than 20 nM each time.
In the case of `Cc1nc2c(N3C[C@@H](C)N(C(c4cc(F)c(C(F)(F)F)cc4F)C4CC(F)(F)C4)C[C@@H]3C)nc3nncn3c2n1C[C@@H]1CCCO1` (stereo partly drawn) [Example 56, 4-((2S,5R)-4-((2,5-Difluoro-4-(trifluoromethyl)phenyl)(3,3-difluorocyclobutyl)methyl)-2,5-dimethylpiperazin-1-yl)-2-methyl-1-(((S)-tetrahydrofuran-2-yl)methyl)-1H-[1,2,4]triazolo[3,4-b]purine], the IC50 at DGKα and at DGKζ was no more than 20 nM in each case.
Consider `Cc1nn(C)c2c1c(N1C[C@@H](C)N(C(c3ccc(F)cc3)c3ccc(F)cc3)C[C@@H]1C)cc1nncn12` [Example 12, 4-((2S,5R)-4-(Bis(4-fluorophenyl)methyl)-2,5-dimethylpiperazin-1-yl)-1,3-dimethyl-1H-pyrazolo[4,3-e][1,2,4]triazolo[4,3-a]pyridine], for which the IC50 on DGKα is no more than 20 nM; on DGKζ it was greater than 2000 nM.

(Values after patent US20230399342A1 (Incyte Corporation, priority 2022, published 2023).)
